Laboratory results taken from patent US20090325952A1, “PYRAZOLO[3,4-B]PYRIDINE COMPOUNDS, AND THEIR USE AS PDE4 INHIBITORS” (Glaxo Group Limited, priority 2006, published 2009).

Key:
[1] = target: T1, PDE6 (from bovine retina) (Bos taurus, UniProt P11541+P23439); assay: Inhibition of PDE6 activity (FP or SPA assays); type: biochemical; conditions: selectivity PDE4B over PDE6
T1 construct: PDE6 can be purified from bovine retina; from tissue; host or cells: bovine retina
T1 sequence (P11541 2-856 limits assumed): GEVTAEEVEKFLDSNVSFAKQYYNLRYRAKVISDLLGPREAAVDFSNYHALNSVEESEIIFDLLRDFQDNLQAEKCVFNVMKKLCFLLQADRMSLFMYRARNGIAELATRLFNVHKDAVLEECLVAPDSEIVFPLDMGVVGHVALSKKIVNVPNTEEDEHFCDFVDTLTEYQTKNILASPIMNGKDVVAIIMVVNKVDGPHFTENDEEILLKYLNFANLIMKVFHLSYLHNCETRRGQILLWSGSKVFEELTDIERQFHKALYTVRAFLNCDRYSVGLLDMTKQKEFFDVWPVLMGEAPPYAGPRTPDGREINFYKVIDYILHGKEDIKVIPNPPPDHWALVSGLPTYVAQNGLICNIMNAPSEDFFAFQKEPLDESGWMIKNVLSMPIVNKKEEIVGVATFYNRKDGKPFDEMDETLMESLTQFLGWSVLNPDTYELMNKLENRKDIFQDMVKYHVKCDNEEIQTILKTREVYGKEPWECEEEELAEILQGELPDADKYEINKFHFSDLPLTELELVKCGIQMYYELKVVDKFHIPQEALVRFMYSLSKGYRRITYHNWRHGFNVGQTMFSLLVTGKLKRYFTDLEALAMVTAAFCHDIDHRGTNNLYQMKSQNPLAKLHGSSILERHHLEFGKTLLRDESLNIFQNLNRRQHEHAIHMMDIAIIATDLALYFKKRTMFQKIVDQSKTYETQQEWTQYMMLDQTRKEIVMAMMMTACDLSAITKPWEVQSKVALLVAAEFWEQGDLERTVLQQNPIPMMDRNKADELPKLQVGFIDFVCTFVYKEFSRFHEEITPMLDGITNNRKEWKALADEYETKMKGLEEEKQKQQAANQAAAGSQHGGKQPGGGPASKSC
T1 sequence (P23439 2-850 limits assumed): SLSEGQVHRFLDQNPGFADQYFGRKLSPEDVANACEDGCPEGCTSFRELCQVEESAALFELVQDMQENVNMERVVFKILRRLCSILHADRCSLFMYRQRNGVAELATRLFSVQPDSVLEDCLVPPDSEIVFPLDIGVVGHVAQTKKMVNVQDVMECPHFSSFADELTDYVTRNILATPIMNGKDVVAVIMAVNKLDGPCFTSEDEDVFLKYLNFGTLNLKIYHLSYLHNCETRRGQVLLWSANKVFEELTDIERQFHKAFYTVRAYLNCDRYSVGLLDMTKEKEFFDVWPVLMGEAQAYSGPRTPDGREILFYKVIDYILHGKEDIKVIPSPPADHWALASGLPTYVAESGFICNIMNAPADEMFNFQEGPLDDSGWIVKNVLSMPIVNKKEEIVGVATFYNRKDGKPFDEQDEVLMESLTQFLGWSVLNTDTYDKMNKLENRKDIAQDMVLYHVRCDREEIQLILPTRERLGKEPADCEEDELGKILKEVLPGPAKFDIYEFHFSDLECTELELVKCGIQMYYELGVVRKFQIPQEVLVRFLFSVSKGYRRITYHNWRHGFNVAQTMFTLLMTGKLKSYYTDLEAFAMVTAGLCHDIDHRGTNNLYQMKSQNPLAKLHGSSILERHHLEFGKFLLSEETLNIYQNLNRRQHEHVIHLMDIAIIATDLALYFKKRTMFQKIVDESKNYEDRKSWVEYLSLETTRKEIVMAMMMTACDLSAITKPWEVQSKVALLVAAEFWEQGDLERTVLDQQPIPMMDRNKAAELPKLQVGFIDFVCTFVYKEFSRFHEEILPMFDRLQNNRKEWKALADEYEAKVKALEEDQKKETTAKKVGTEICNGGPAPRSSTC
Description: PDE6 can be purified from bovine retina as described by: P. Catty and P. Deterre, “Activation and solubilization of the retinal cGMP-specific phosphodiesterase by limited proteolysis”, Eur. J. Biochem., 1991, 199, 263-269; A. Tar et al. “Purification of bovine retinal cGMP phosphodiesterase”, Methods in Enzymology, 1994, 238, 3-12; and/or D. Srivastava et al. “Effects of magnesium on cyclic GMP hydrolysis by the bovine retinal rod cyclic GMP phosphodiesterase”, Biochem. J, 1995, 308, 653-658.
(§1) The ability of compounds to inhibit catalytic activity at PDE4B or 4D (human recombinant), PDE3 (from bovine aorta), PDE5 (human recombinant) or PDE6 (from bovine retina) can optionally be determined by Scintillation Proximity Assay (SPA) in a 96-well format.
Test compounds (as a solution in DMSO, suitably about 2 microlitre (ul) volume of DMSO solution) are preincubated at ambient temperature (room temperature, e.g. 19-23° C.) in Wallac Isoplates (code 1450-514) with PDE enzyme in 50 mM Tris-HCl buffer pH 7.5, 8.3 mM MgCl2, 1.7 mM EGTA, 0.05% (w/v) bovine serum albumin for 10-30 minutes (usually 30 minutes). The enzyme concentration is adjusted so that no more than 20% hydrolysis of the substrate defined below occurs in control wells without compound, during the incubation. […] Bound radioactive product is measured using a WALLAC TRILUX 1450 Microbeta scintillation counter. […]

PDE3 (from bovine aorta) = assay: Inhibition of PDE3 activity (FP or SPA assays); type: biochemical; conditions: selectivity PDE4B over PDE3
Description: PDE3 can be purified from bovine aorta as described by H. Coste and P. Grondin, “Characterisation of a novel potent and specific inhibitor of type V phosphodiesterase”, Biochem. Pharmacol., 1995, 50, 1577-1585.
as §1
Test compounds (as a solution in DMSO, suitably about 2 microlitre (ul) volume of DMSO solution) are preincubated at ambient temperature (room temperature, e.g. 19-23° C.) in Wallac Isoplates (code 1450-514) with PDE enzyme in 50 mM Tris-HCl buffer pH 7.5, 8.3 mM MgCl2, 1.7 mM EGTA, 0.05% (w/v) bovine serum albumin for 10-30 minutes (usually 30 minutes). The enzyme concentration is adjusted so that no more than 20% hydrolysis of the substrate defined below occurs in control wells without compound, during the incubation. […] Bound radioactive product is measured using a WALLAC TRILUX 1450 Microbeta scintillation counter. […] Curves are analysed using ActivityBase and XLfit (ID Business Solutions Limited, 2 Ocean Court, Surrey Research Park, Guildford, Surrey GU2 7QB, United Kingdom) Results are expressed as pIC50 values. […]

CCc1nc2c(cnn2CC)c(NC2CCOCC2)c1CNC(=O)c1ccc(NC(=O)CCCCCCCN(C)CCO)cc1 [Example 1B, N-{[1,6-diethyl-4-(tetrahydro-2H-pyran-4-ylamino)-1H-pyrazolo[3,4-b]pyridin-5-yl]methyl}-4-({8-[(2-hydroxyethyl)(methyl)amino]octanoyl}amino)benzamide]
PDE4B inhibition compared with PDE6 inhibition (pIC50 values) [1]: inhibit PDE4B more strongly than they inhibit PDE3, PDE5 and PDE6 | PDE4B inhibition compared with PDE3 inhibition (pIC50 values) (PDE3 (from bovine aorta)): inhibit PDE4B more strongly than they inhibit PDE3, PDE5 and PDE6
